Measured values as given in US20250206745A1, “PYRROLOPYRIDAZINE DERIVATIVES AND RELATED USES” (NodThera Limited, priority 2023, published 2025).
pIC50: −log10 of the molar value. Structures can show the parent of a compound that is named as a salt.

What was measured:
[1] = system: IL-1β release upon NLRP3 activation in peripheral blood mononuclear cells (PBMC); assay: PBMC IC50 Determination Assay; assay type: cell-based; settings: Homo sapiens; inhibition of IL-1β release; PBMC primed with LPS, stimulated with ATP or nigericin; ELISA or HTRF
Experimental: The compounds of the present disclosure were tested for their inhibitory activity against IL-1β release upon NLRP3 activation in peripheral blood mononuclear cells (PBMC).
Protocol A. PBMC were isolated from buffy coats by density gradient centrifugation on Histopaque-1077 (Sigma, cat no. 10771). Isolated cells were seeded into the wells of a 96-well plate and incubated for 3 h with lipopolysaccharide (LPS). Following medium exchange, the compounds of the present disclosure were added (a single compound per well) and the cells were incubated for 30 min. Next, the cells were stimulated either with ATP (5 mM) or nigericin (10 μM) for 1 h and the cell culture media from the wells were collected for further analysis.
The release of IL-1β into the media was determined by a quantitative detection of IL-1β in the media using an IL-1β enzyme-linked immunosorbent assay (ELISA) Ready-SET-Go!, eBioscience cat. No. 88-7261-88. Briefly, in a first step, high affinity binding plates (Corning, Costar 9018 or NUNC Maxisorp Cat No. 44-2404) were coated overnight at 4° C. with specific capture antibody included in the kit (anti-human IL-1β ref. 14-7018-68). Subsequently, plates were blocked with blocking buffer for 1 h at room temperature (rt) and after washing with a buffer (PBS with 0.05% Tween-20) incubated with protein standard and culture media. After 2 h of incubation at rt, plates were washed and incubated with biotinylated detection antibody included in the kit (anti-human IL-1β Biotin ref. 33-7110-68) for 1 h at rt. Plates were washed and incubated with HRP-streptavidin for 30 min at rt and washed again. The signal was developed after addition of 3,3′,5,5′-tetramethylbenzidine-peroxidase (TMB) until colour appeared and the reaction was stopped by 2 M H2SO4. A microplate spectrophotometer (BioTek) was used to detect signals with 450 nm. The detection range of IL-1β ELISA was […].
Protocol B. PBMC were isolated from buffy coats by density gradient centrifugation on Histopaque-1077 (Sigma, cat no. 10771). Isolated cells were seeded into the wells (280,000 cells/well) of a 96-well plate and incubated for 3 h with lipopolysaccharide (LPS, 1 μg/mL diluted 1000× from a 1 mg/mL stock solution). The compounds of the present disclosure were added (a single compound per well) and the cells were incubated for 30 min. Next, the cells were stimulated with ATP (5 mM final concentration diluted 20× from a 100 mM stock solution) for 1 h and the cell culture media from the wells were collected for further analysis.
The release of IL-1β into the media was determined by quantitative detection of IL-1β in the media using HTRF®, CisBio cat. No. 62HIL1BPEH. Briefly, cell culture supernatant were dispensed directly into the assay plate containing antibodies labelled with the HTRF® donor and acceptor. A microplate spectrophotometer (BMG) was used to detect signals at 655 nm and 620 nm. The detection range of IL-1β HTRF® was 39-6500 pg/mL.

[2] = system: IL-1β release upon NLRP3 activation in phorbol 12-myristate 13-acetate (PMA)-differentiated THP-1 cells; assay: THP-1 IC50 Determination Assay; assay type: cell-based; settings: Homo sapiens, inhibition of IL-1β release, LPS, nigericin, ELISA
Experimental: The compounds of the present disclosure were tested for their inhibitory activity against IL-1β release upon NLRP3 activation in phorbol 12-myristate 13-acetate (PMA)-differentiated THP-1 cells.
THP-1 cells stored in liquid nitrogen were thawed in a 37° C. water bath. The cells were added into complete RPMI 1640 medium (FBS (56 mL), 100× Penicillin-Streptomycin (5.6 mL) and 0.05 mM 2-Mercaptoethanol in RPMI 1640 Medium (500 mL)) and centrifuged for 5 min at 1000 rpm. The supernatant was discarded and the cells resuspended into new cell culture medium for culturing. Cells were cultured in cell culture medium and passaged every 3-4 days to maintain cell density between 4×10^5 and 1.5×10^6 cells/mL. The cells were diluted to 0.8×10^6 cells/mL and grown in a T150 flask with PMA (final concentration 5 ng/mL). The flask was incubated in a 37° C. incubator with a humidified atmosphere of 5% CO2 for −40 hours. After −40 hours of PMA differentiation, the flask was washed with DPBS. Cells were digested with Trypsin LE for about 5 min at room temperature, and digestion was terminated using complete RPMI 1640 medium. Cells were centrifuged and resuspended (1000 rpm, 3 min). The supernatant was discarded and cells washed with DPBS, centrifuged and resuspended cells (1000 rpm, 5 min). Cells were plated at 30,000 cells/well in a 384-well PP plate and treated with 25 ng/mL LPS solution diluted in serum-free medium (45 μL). The plate was incubated in a 37° C. incubator with a humidified atmosphere of 5% CO2 for 2 hours. Compounds (from 10 mM DMSO solution) were dispensed and serially diluted by 1:3 eight times, with final 0.5% DMSO concentration. NLRP3 inflammasome was activated with nigericin (5 μL), the plate was centrifuged (1000 rpm, 30 s) and incubated in a 37° C. incubator with a humidified atmosphere of […] for 2 hours. 35 μL/well of supernatant was removed and IL-1β levels determined by ELISA assay (Mabtech 3416-1H-20) according to the manufacturer's instructions.

Row | pIC50 [2] | Structure (SMILES) | pIC50 [1]
1 | 5.52 to 6.00 | Cc1cc(Cl)cc(O)c1-c1cc2ccn(C[C@@H]3CCN(C)C[C@H]3F)c2nn1 (relative stereo) [Compound 51, Trans-5-chloro-2-{7-[(3-fluoro-1-methylpiperidin-4-yl)methyl]-7H-pyrrolo[2,3-c]pyridazin-3-yl}-3-methylphenol hydrochloride] | 6.52 to 7.00
2 | 7.00 to 7.52 | Cc1cc(C(F)(F)F)cc(O)c1-c1cc2ccn(CC3CCN(C)CC3)c2nn1 [Compound 4, 3-Methyl-2-{7-[(1-methylpiperidin-4-yl)methyl]-7H-pyrrolo[2,3-c]pyridazin-3-yl}-5-(trifluoromethyl)phenol] | 7.00 to 7.52
3 | 6.00 to 6.52 | Cc1cc(C(F)(F)F)cc(O)c1-c1cc2ccn(C)c2nn1 [Compound 6, 3-Methyl-2-{7-methyl-7H-pyrrolo[2,3-c]pyridazin-3-yl}-5-(trifluoromethyl)phenol] | 6.00 to 6.52
4 | 6.52 to 7.00 | Cc1cc(Cl)cc(O)c1-c1cc2ccn(CC3CCCN(C)C3)c2nn1 (stereo not drawn) [Compound 8, 5-Chloro-3-methyl-2-{7-[(1-methylpiperidin-3-yl)methyl]-7H-pyrrolo[2,3-c]pyridazin-3-yl}phenol] | 7.00 to 7.52
5 | 7.00 to 7.52 | CC(=O)N1CCC(Cn2ccc3cc(-c4c(C)cc(Cl)cc4O)nnc32)CC1 [Compound 9, 1-(4-{[3-(4-Chloro-2-hydroxy-6-methylphenyl)-7H-pyrrolo[2,3-c]pyridazin-7-yl]methyl}piperidin-1-yl)ethan-1-one] | 7.00 to 7.52
6 | 6.52 to 7.00 | Cc1cc(Cl)cc(O)c1-c1cc2ccn(CC3CC(=O)N(C)C3)c2nn1 (stereo not drawn) [Compound 64, 4-{[3-(4-Chloro-2-hydroxy-6-methylphenyl)-7H-pyrrolo[2,3-c]pyridazin-7-yl]methyl}-1-methylpyrrolidin-2-one] | 
7 | 6.00 to 6.52 | Cc1cc(Cl)cc(O)c1-c1cc2ccn(C3CCN(C)CC3)c2nn1 [Compound 67, 5-Chloro-3-methyl-2-[7-(1-methylpiperidin-4-yl)-7H-pyrrolo[2,3-c]pyridazin-3-yl]phenol] | 

The remaining lines, values behind:

Row | Structure (SMILES) | pIC50 [2] | pIC50 [1]
8 | Cc1cc(Cl)cc(O)c1-c1cc2ccn(C[C@@H]3CCN(C)C[C@@H]3F)c2nn1 (relative stereo) [Compound 24, Cis-5-chloro-2-{7-[(3-fluoro-1-methylpiperidin-4-yl)methyl]-7H-pyrrolo[2,3-c]pyridazin-3-yl}-3-methylphenol] | 6.52 to 7.00 | 7.00 to 7.52
9 | Cc1cc(C(F)(F)F)cc(O)c1-c1cc2ccn(CC3CCOCC3)c2nn1 [Compound 1, 3-Methyl-2-{7-[(oxan-4-yl)methyl]-7H-pyrrolo[2,3-c]pyridazin-3-yl}-5-(trifluoromethyl)phenol] | 6.00 to 6.52 | 6.52 to 7.00
10 | Cc1cc(C(F)(F)F)cc(O)c1-c1cc2ccn(CC3CCCO3)c2nn1 (stereo not drawn) [Compound 2, 3-Methyl-2-{7-[(oxolan-2-yl)methyl]-7H-pyrrolo[2,3-c]pyridazin-3-yl}-5-(trifluoromethyl)phenol] | 6.52 to 7.00 | 6.00 to 6.52
11 | Cc1cc(C(F)(F)F)cc(O)c1-c1cc2ccn(CC3CCOC3)c2nn1 (stereo not drawn) [Compound 3, 3-Methyl-2-{7-[(oxolan-3-yl)methyl]-7H-pyrrolo[2,3-c]pyridazin-3-yl}-5-(trifluoromethyl)phenol] | 6.52 to 7.00 | 6.52 to 7.00
12 | Cc1cc(C(F)(F)F)cc(O)c1-c1cc2cc[nH]c2nn1 [Compound 5, 3-Methyl-2-{7H-pyrrolo[2,3-c]pyridazin-3-yl}-5-(trifluoromethyl)phenol] | 6.00 to 6.52 | 6.00 to 6.52
13 | Cc1cc(Cl)cc(O)c1-c1cc2ccn(CC3CCN(CC(F)(F)F)CC3)c2nn1 [Compound 7, 5-Chloro-3-methyl-2-(7-{[1-(2,2,2-trifluoroethyl)piperidin-4-yl]methyl}-7H-pyrrolo[2,3-c]pyridazin-3-yl)phenol] | 6.00 to 6.52 | 6.00 to 6.52
14 | Cc1cc(Cl)cc(O)c1-c1cc2ccn(CC(=O)N(C)[C@@H]3CCOC3)c2nn1 [Compound 60, 2-[3-(4-Chloro-2-hydroxy-6-methylphenyl)-7H-pyrrolo[2,3-c]pyridazin-7-yl]-N-methyl-N-[(3R)-oxolan-3-yl]acetamide] | 6.52 to 7.00 | 
15 | Cc1cc(Cl)cc(O)c1-c1cc2ccn(CC(=O)N(C)[C@H]3CCN(C)C3)c2nn1 [Compound 61, 2-[3-(4-Chloro-2-hydroxy-6-methylphenyl)-7H-pyrrolo[2,3-c]pyridazin-7-yl]-N-methyl-N-[(3S)-1-methylpyrrolidin-3-yl]acetamide hydrochloride] | 6.52 to 7.00 | 
16 | Cc1cc(Cl)cc(O)c1-c1cc2ccn(CC(=O)N(C)[C@@H]3CCN(C)C3)c2nn1 [Compound 62, 2-[3-(4-Chloro-2-hydroxy-6-methylphenyl)-7H-pyrrolo[2,3-c]pyridazin-7-yl]-N-methyl-N-[(3R)-1-methylpyrrolidin-3-yl]acetamide hydrochloride] | 6.00 to 6.52 | 
17 | Cc1cc(Cl)cc(O)c1-c1cc2ccn(CC3CCN(C)C3=O)c2nn1 (stereo not drawn) [Compound 66, 3-{[3-(4-Chloro-2-hydroxy-6-methylphenyl)-7H-pyrrolo[2,3-c]pyridazin-7-yl]methyl}-1-methylpyrrolidin-2-one] | 6.00 to 6.52 | 
18 | CN1CCC(Cn2ccc3cc(-c4ccc(C#N)cc4O)nnc32)CC1 [Compound 68, 3-Hydroxy-4-{7-[(1-methylpiperidin-4-yl)methyl]-7H-pyrrolo[2,3-c]pyridazin-3-yl}benzonitrile] | 5.00 to 5.52 | 
19 | Cc1cc(Cl)cc(O)c1-c1cc2ccn([C@@H]3CCN(C)C3=O)c2nn1 [Compound 69, (3R)-3-[3-(4-Chloro-2-hydroxy-6-methylphenyl)-7H-pyrrolo[2,3-c]pyridazin-7-yl]-1-methylpyrrolidin-2-one] | 6.00 to 6.52 | 
20 | Cc1cc(Cl)cc(O)c1-c1cc2ccn(CC3CCC(=O)N(C)C3)c2nn1 (stereo not drawn) [Compound 70, 5-{[3-(4-Chloro-2-hydroxy-6-methylphenyl)-7H-pyrrolo[2,3-c]pyridazin-7-yl]methyl}-1-methylpiperidin-2-one] | 6.52 to 7.00 | 
21 | Cc1cc(Cl)cc(O)c1-c1cc2ncn(C[C@@H]3CCCN(C)C3)c2nn1 [Compound 79, 5-Chloro-3-methyl-2-(7-{[(3R)-1-methylpiperidin-3-yl]methyl}-7H-imidazo[4,5-c]pyridazin-3-yl)phenol hydrochloride] | 7.00 to 7.52 | 
22 | Cc1cc(Cl)cc(O)c1-c1cc2ncn(C[C@H]3CCCN(C)C3)c2nn1 [Compound 80, 5-Chloro-3-methyl-2-(7-{[(3S)-1-methylpiperidin-3-yl]methyl}-7H-imidazo[4,5-c]pyridazin-3-yl)phenol hydrochloride] | 6.52 to 7.00 | 
